A word on the EC50: it is the concentration at which the effect is half-maximal.

Like-named read-outs stand apart in the source and are kept apart here. Marks after values point to notes of the source that are not given here.

The assay concerns the target T1, F508delCFTR (Homo sapiens, UniProt P13569, DEL508-508).
T1 construct: expressed in transfected cells; host or cells: CFBE41o- human lung derived epithelial cells (CFBE41o-F508delCFTR-HRP), doxycycline-inducible
The assay is described as follows: Cell Surface Expression-Horse Radish Peroxidase (CSE-HRP) Assay.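 On EC50 (with co-corrector): co-corrector chromenyl benzoic acid corrector at 2 or 3 µM.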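 On Maximum % activity (without co-corrector): % of on-plate positive control chromenyl benzoic acid corrector at 2 or 3 µM.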 The class given is cell-based. Particulars: for Maximum % activity (with co-corrector) / Emax: maximum at any tested concentration; for Emax: read-out: Maximum % activity (without co-corrector). The gist of the method: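 Corrector compounds were given as 8-point 3-fold series from 20 or 30 μM, with or without a 2 μM co-corrector, for 18-24 h at 33 °C. Surface HRP was read by luminol luminescence as % of positive control; variable-Hill-slope sigmoidal fitting gave EC50 from triplicate plates.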

[1] abbreviates: test compound alone, without co-corrector, read-out: EC50 (without co-corrector).
[2] abbreviates: with co-corrector, read-out: EC50 (with co-corrector).
[3] abbreviates: test compound with co-corrector.
The mark [4] stands for this setting: test compound with co-corrector, read-out: EC50 (with co-corrector).
The mark [5] stands for this setting: test compound without co-corrector.
Setting [6] is: test compound without co-corrector, read-out: EC50 (without co-corrector).

T1 sequence (P13569 with tags, fused parts or gaps DEL508-508): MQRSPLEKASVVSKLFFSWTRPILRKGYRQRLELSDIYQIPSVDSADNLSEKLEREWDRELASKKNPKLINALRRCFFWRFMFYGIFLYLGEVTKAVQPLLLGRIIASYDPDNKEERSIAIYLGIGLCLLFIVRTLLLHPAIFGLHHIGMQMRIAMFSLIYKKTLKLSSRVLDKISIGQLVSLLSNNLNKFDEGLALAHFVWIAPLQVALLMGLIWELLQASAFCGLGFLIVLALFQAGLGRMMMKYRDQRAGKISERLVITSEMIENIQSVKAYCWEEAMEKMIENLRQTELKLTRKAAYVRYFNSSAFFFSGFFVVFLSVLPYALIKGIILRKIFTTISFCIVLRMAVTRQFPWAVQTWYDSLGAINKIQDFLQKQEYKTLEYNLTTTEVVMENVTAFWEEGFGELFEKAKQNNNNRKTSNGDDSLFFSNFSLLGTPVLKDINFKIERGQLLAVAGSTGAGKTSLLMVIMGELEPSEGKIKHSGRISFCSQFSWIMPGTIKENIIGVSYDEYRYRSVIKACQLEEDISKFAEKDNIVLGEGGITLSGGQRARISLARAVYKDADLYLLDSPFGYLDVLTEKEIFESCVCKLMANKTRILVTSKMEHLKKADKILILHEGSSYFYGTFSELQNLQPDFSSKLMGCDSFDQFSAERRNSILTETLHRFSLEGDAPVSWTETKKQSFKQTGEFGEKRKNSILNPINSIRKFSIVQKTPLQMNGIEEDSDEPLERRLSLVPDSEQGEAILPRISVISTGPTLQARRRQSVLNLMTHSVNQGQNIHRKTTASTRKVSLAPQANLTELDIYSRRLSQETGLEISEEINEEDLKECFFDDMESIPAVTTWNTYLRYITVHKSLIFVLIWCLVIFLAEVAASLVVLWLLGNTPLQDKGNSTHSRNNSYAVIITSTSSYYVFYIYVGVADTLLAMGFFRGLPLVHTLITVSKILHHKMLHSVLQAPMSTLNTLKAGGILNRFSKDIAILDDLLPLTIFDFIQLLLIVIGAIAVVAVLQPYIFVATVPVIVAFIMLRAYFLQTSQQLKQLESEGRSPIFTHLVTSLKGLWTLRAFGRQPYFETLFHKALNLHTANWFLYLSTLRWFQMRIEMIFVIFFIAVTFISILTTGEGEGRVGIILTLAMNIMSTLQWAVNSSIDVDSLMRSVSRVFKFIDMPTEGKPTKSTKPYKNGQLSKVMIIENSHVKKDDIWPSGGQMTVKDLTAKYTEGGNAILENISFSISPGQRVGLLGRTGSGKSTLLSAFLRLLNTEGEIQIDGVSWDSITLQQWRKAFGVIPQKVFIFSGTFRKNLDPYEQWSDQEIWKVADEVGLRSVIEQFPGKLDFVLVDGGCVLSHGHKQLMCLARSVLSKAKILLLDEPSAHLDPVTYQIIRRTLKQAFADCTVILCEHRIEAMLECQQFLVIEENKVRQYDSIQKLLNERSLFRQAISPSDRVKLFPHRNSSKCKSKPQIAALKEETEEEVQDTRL

`CC(C)COc1ccc(N(C)C)c(C2(C(=O)NS(=O)(=O)c3cccc4ncccc34)CC2)n1` [Example I-108, 1-[3-(dimethylamino)-6-(2-methylpropoxy)pyridin-2-yl]-N-(quinoline-5-sulfonyl)cyclopropane-1-carboxamide]: the EC50 was less than 3 µM under setting [1] and less than 3 µM under setting [2]. The “Maximum % activity (with co-corrector)” value (with co-corrector) is reported as “+++ (≥350)”. Moreover, the Emax (without co-corrector) was more than 150%.

Regarding `Cc1ccc2c(S(=O)(=O)NC(=O)C3(c4cc(C5CCC5)cnc4OCC4CC4)CC3)cccc2n1` [Example GI-110, 1-[5-cyclobutyl-2-(cyclopropylmethoxy)pyridin-3-yl]-N-(2-methylquinoline-5-sulfonyl)cyclopropane-1-carboxamide], the “Maximum % activity (with co-corrector)” value under setting [3] is “+++ (≥350)”. Also, the EC50 under setting [4] was less than 3 µM and the EC50 under setting [6] was less than 3 µM. Also, the Emax under setting [5] is more than 150%.

Take `CCOc1ccc(OC)c(C2(C(=O)NS(=O)(=O)c3cccc4nc(C)ccc34)CC2)c1` [Example I-69, 1-(5-ethoxy-2-methoxyphenyl)-N-(2-methylquinoline-5-sulfonyl)cyclopropane-1-carboxamide]: the EC50 under setting [1] was less than 3 µM and the EC50 under setting [2] was less than 3 µM. Further, the “Maximum % activity (with co-corrector)” value (with co-corrector) is recorded as “+++ (≥350)”. Further, the Emax (without co-corrector) is more than 150%.

Turning to `COc1c(Cl)cc(Cl)c(OC)c1C1(C(=O)NS(=O)(=O)c2cccc3ncccc23)CC1` [Example III-103, 1-(3,5-dichloro-2,6-dimethoxyphenyl)-N-(quinoline-5-sulfonyl)cyclopropane-1-carboxamide], the EC50 is 3 to 10 µM under setting [1] and less than 3 µM under setting [2]. Moreover, for the setting “with co-corrector”, the “Maximum % activity (with co-corrector)” value is on record as “+++ (≥350)”. Further, the Emax (without co-corrector) was more than 150%.

For the compound `COc1ccc(C2CCC2)cc1C1(C(=O)NS(=O)(=O)c2cccc3cnn(C)c23)CCC1` [Example I-25, 1-(5-cyclobutyl-2-methoxyphenyl)-N-(1-methyl-1H-indazole-7-sulfonyl)cyclobutane-1-carboxamide], the EC50 is less than 3 µM under setting [1] and less than 3 µM under setting [2]. Moreover, the “Maximum % activity (with co-corrector)” value (with co-corrector) is listed as “+++ (≥350)”. Further, where the note is “without co-corrector”, the Emax was more than 150%.

Consider `COc1ccc(C)c(C)c1C1(C(=O)NS(=O)(=O)c2cccc3[nH]ncc23)CC1` [II-77], for which the EC50 was less than 3 µM under setting [1] and less than 3 µM under setting [2]. For the same compound, the “Maximum % activity (with co-corrector)” value (with co-corrector) was “+++ (≥350)”. Further, the Emax (without co-corrector) was more than 150%.

Turning to `COCc1ccc(OC)c(C2(C(=O)NS(=O)(=O)c3cccc4ncccc34)CC2)c1` [II-49], the EC50 under setting [1] is less than 3 µM and the half-maximal effective concentration (EC50) under setting [2] was less than 3 µM. Moreover, the “Maximum % activity (with co-corrector)” value (with co-corrector) was “+++ (≥350)”. The Emax (without co-corrector) was more than 150%.

As for `COc1cc(OC(C)C)c(C2(C(=O)NS(=O)(=O)c3cccc4ncccc34)CC2)cn1` [Example GI-17, 1-{6-methoxy-4-[(propan-2-yl)oxy]pyridin-3-yl}-N-(quinoline-5-sulfonyl)cyclopropane-1-carboxamide], the EC50 is 3 to 10 µM under setting [1] and less than 3 µM under setting [2]. Moreover, the “Maximum % activity (with co-corrector)” value (with co-corrector) is listed as “+++ (≥350)”. For the same compound, the Emax (without co-corrector) was more than 150%.

`COc1ccc(C(C)C)cc1C1(C(=O)NS(=O)(=O)c2cccc3nc(C)ccc23)CC1` [Example I-71, 1-[2-methoxy-5-(propan-2-yl)phenyl]-N-(2-methylquinoline-5-sulfonyl)cyclopropane-1-carboxamide]: the EC50 runs as follows: under setting [1], less than 3 µM; under setting [2], less than 3 µM. Also, the “Maximum % activity (with co-corrector)” value (with co-corrector) is “+++ (≥350)”. The Emax (without co-corrector) is more than 150%.

Regarding `O=C(NS(=O)(=O)Cc1ccccc1)C1(c2ccc(F)cc2)CC1` [Example III-112, 1-(4-fluorophenyl)-N-(phenylmethanesulfonyl)cyclopropane-1-carboxamide], the EC50 is, setting by setting: under setting [1], more than 10 µM; under setting [2], more than 10 µM. For the same compound, the “Maximum % activity (with co-corrector)” value (with co-corrector) was “+ (<150)”. The Emax (without co-corrector) was less than 50%.

Turning to `CCc1ccncc1C1(C(=O)NS(=O)(=O)c2cccc3ccccc23)CC1` [GII-20, 1-(4-ethylpyridin-3-yl)-N-(naphthalene-1-sulfonyl)cyclopropane-1-carboxamide], under setting [3], the “EC50 (with co-corrector)” value is listed as “++^a”; the “Maximum % activity (with co-corrector)” value was “++ (≥150 and <350)”. Moreover, under setting [5], the “EC50 (without co-corrector)” value is “++^a” and the Emax is 50 to 150%.

In the case of `COc1ncc(C2(C(=O)NS(=O)(=O)c3cccc4c3CCCN4)CC2)c(OC)n1` [GIII-12], under setting [3], the “Maximum % activity (with co-corrector)” value was “+ (<150)”. Also, the EC50 under setting [4] was more than 10 µM and the EC50 under setting [6] was more than 10 µM. Under setting [5], the Emax is less than 50%.

Regarding `O=C(NS(=O)(=O)c1cccnc1)C1(c2ccc(Cl)cc2Cl)CC1` [Example III-59, 1-(2,4-dichlorophenyl)-N-(pyridine-3-sulfonyl)cyclopropane-1-carboxamide], the EC50 was more than 10 µM under setting [1] and 3 to 10 µM under setting [2]. In addition, for the setting “with co-corrector”, the “Maximum % activity (with co-corrector)” value is listed as “+ (<150)”. Moreover, the Emax (without co-corrector) was less than 50%.

As for `O=C(NS(=O)(=O)Cc1ccccc1)C1(c2ccc(Cl)cc2Cl)CC1` [Example III-104, 1-(2,4-dichlorophenyl)-N-(phenylmethanesulfonyl)cyclopropane-1-carboxamide], the EC50 is, setting by setting: under setting [1], more than 10 µM; under setting [2], 3 to 10 µM. The “Maximum % activity (with co-corrector)” value (with co-corrector) is “++ (≥150 and <350)”. In addition, the Emax (without co-corrector) is less than 50%.

Take `COc1ccc(C2CC2)c(C)c1C1(C(=O)NS(=O)(=O)c2cccc3nc(C)ccc23)CC1` [II-52]: the EC50 by setting is: under setting [1], less than 3 µM; under setting [2], less than 3 µM. Also, the “Maximum % activity (with co-corrector)” value (with co-corrector) was “+++ (≥350)”. Besides, the Emax (without co-corrector) is more than 150%.

As to `CCOc1ccc(C2(OC)CCC2)cc1C1(C(=O)NS(=O)(=O)c2cccc3nc(C)ccc23)CC1` [Example I-105, 1-[2-ethoxy-5-(1-methoxycyclobutyl)phenyl]-N-(2-methylquinoline-5-sulfonyl)cyclopropane-1-carboxamide], the EC50 was less than 3 µM under setting [1] and less than 3 µM under setting [2]. The “Maximum % activity (with co-corrector)” value (with co-corrector) is recorded as “+++ (≥350)”. Further, the Emax (without co-corrector) is more than 150%.

For the compound `CC(C)Oc1ccc(C2CCC2)nc1C1(C(=O)NS(=O)(=O)c2cccc3ncccc23)CC1` [Example GI-39, 1-{6-cyclobutyl-3-[(propan-2-yl)oxy]pyridin-2-yl}-N-(quinoline-5-sulfonyl)cyclopropane-1-carboxamide], the “Maximum % activity (with co-corrector)” value under setting [3] is “+++ (≥350)”. In addition, the EC50 under setting [4] was less than 3 µM and the EC50 under setting [6] is less than 3 µM. Further, the Emax under setting [5] was more than 150%.

Regarding `O=C(NS(=O)(=O)c1cccc2[nH]ccc12)C1(c2cc(C3CCC3)cnc2OCC2CC2)CC1` [Example GI-98, 1-[5-cyclobutyl-2-(cyclopropylmethoxy)pyridin-3-yl]-N-(1H-indole-4-sulfonyl)cyclopropane-1-carboxamide], the “Maximum % activity (with co-corrector)” value under setting [3] is reported as “+++ (≥350)”. Further, the EC50 reads like this: under setting [4], less than 3 µM; under setting [6], less than 3 µM. Moreover, the Emax under setting [5] was more than 150%.

On to `O=C(OCc1ccccc1)N1CCC(S(=O)(=O)NC(=O)C2(c3ccc(Cl)cc3Cl)CC2)CC1` [Example III-22, benzyl 4-{[1-(2,4-dichlorophenyl)cyclopropane-1-carbonyl]sulfamoyl}piperidine-1-carboxylate], for which the EC50 reads like this: under setting [1], more than 10 µM; under setting [2], 3 to 10 µM. Under “with co-corrector”, the “Maximum % activity (with co-corrector)” value is “++ (≥150 and <350)”. In addition, the Emax (without co-corrector) is less than 50%.

With `CCCc1nc(C(F)(F)F)ccc1C1(C(=O)NS(=O)(=O)c2cccc3ncccc23)CC1` [Example GI-4, 1-[2-propyl-6-(trifluoromethyl)pyridin-3-yl]-N-(quinoline-5-sulfonyl)cyclopropane-1-carboxamide], the EC50 runs as follows: under setting [1], 3 to 10 µM; under setting [2], less than 3 µM. Moreover, the “Maximum % activity (with co-corrector)” value (with co-corrector) was “+++ (≥350)”. For the same compound, the Emax (without co-corrector) is more than 150%.

For the compound `CCCS(=O)(=O)NC(=O)C1(c2cccc(OC)c2)CCOCC1` [Example III-119, 4-(3-methoxyphenyl)-N-(propane-1-sulfonyl)oxane-4-carboxamide], the 50% effective concentration (EC50) reads like this: under setting [1], more than 10 µM; under setting [2], more than 10 µM. For the same compound, the “Maximum % activity (with co-corrector)” value (with co-corrector) is listed as “+ (<150)”. Besides, the Emax (without co-corrector) was less than 50%.

Regarding `COc1nc(N(C)C)ccc1C1(C(=O)NS(=O)(=O)c2cccc3ncccc23)CC1` [GII-18, 1-[6-(dimethylamino)-2-methoxypyridin-3-yl]-N-(quinoline-5-sulfonyl)cyclopropane-1-carboxamide], under setting [3], the “Maximum % activity (with co-corrector)” value is on record as “+++ (≥350)”. Moreover, the EC50 under setting [4] was in the range of 3 to 10 µM and the EC50 under setting [6] lay within 3 to 10 µM. In addition, the Emax under setting [5] is more than 150%.

Regarding `COCCOc1ncc(C)cc1C1(C(=O)NS(=O)(=O)c2cccc3ncccc23)CC1` [GII-52, 1-[2-(2-methoxyethoxy)-5-methylpyridin-3-yl]-N-(quinoline-5-sulfonyl)cyclopropane-1-carboxamide], the “Maximum % activity (with co-corrector)” value under setting [3] is “++ (≥150 and <350)”. Moreover, the EC50 reads like this: under setting [4], 3 to 10 µM; under setting [6], 3 to 10 µM. Under setting [5], the Emax lay in the range of 50 to 150%.

On to `CCOCC(C)(C)c1ccc(OC)c(C2(C(=O)NS(=O)(=O)c3cccc4nc(C)ccc34)CC2)c1` [II-111], for which the EC50 is, setting by setting: under setting [1], less than 3 µM; under setting [2], less than 3 µM. Where the note is “with co-corrector”, the “Maximum % activity (with co-corrector)” value is listed as “+++ (≥350)”. The Emax (without co-corrector) is more than 150%.

Values taken from patent US10829473B2, “Modulators of the cystic fibrosis transmembrane conductance regulator protein and methods of use” (AbbVie Overseas S.Á.R.L., priority 2017, dated 2020).
